Blank lines part the entries; values can stand above or below the compound they belong to.
Key:
[1] = design: species or system dogs; conditions: dog, in vivo
[2] = assay type: in vivo, human
From the text: The stability permits that the permeability of arimoclomol is high based on urinary recovery in human mass balance trial.

[3] = design: species or system human; conditions: in vivo
Procedure: The PK parameters of arimoclomol after single dose and multiple dose administrations of arimoclomol were studied. After single- and multiple-dose oral administration of arimoclomol, the overall median tmax was 0.25 to 3.00 hours.

[4] = Stability of ORZY-04 on drying; assay type: physicochemical; conditions: 168 h of drying at 45° C. in vacuum
Procedure: A citric acid solution was prepared by charging citric acid (15.01 g, […]) and MeOH (100 mL) in a separate container and stirring for 5 min. at 20° C. The citric acid solution was then charged to the container containing the reaction solution, and the mixture was cooled to 0° C. and stirred for at least 12 h at 0° C. ORZY-04 was then isolated by filtration of the obtained suspension, and washed with MeOH (40 mL). Finally, the solids were dried at 45° C. in vacuum.

[5] = Particle size distribution of ORZY-05 by Malvern Mastersizer 3000; assay type: physicochemical; conditions: ORZY-05 particles, Malvern Mastersizer 3000, volume distribution
Procedure: Further batches of ORZY-05 were prepared essentially as in Example 7 and the ORZY-05 particles were examined using Malvern Mastersizer 3000 as described in Example 11.
Malvern Mastersizer 3000: Particle size distribution of Arimoclomol citrate (ORZY-05) was determined by light scattering using a Malvern Mastersizer 3000 particle size analyzer (Malvern Instruments Ltd, Grovewood Road, Malvern, Worcestershire WR14 1XZ, United Kingdom) with a Hydro MV wet-dispersion unit attached. 2-Propanol with 1.8 g/L SPAN-85 additive was used as a dispersion medium (“dispersant”) and added to the dispersion unit. Prior to sample addition, the background counts of the system were determined by circulating the dispersant through the measurement cell under measurement conditions (2500 rpm stirrer speed). Samples for analysis were prepared by adding a suitable amount of Arimoclomol citrate to a 10 mL vial and pre-dispersing it with dispersant under light agitation for a few seconds. The pre-dispersed sample was then pipetted into the Hydro MV dispersion unit filled with dispersant to meet a laser obscuration range of 10-15%. A single-use PE pipette was used for this and representative sampling from the 10 mL vial was ensured by continuous agitation. […] Volume distributions were obtained and the D10, D50 and D90 were calculated from these distributions and reported. For each sample, a single sample preparation was analyzed using red light measurement only. Upon measurement completion, the sample cell was emptied and cleaned.

[6] = Particle size distribution of ORZY-05 by static automated imaging (Morphologi 4); assay type: physicochemical; conditions: ORZY-05 particles
Procedure: The materials and methods were essentially as in Example 7. In the present example, the cooling time of the cooling step of from 30° C. to 0° C. subsequent to addition of acetone was varied and its influence on the particle size of ORZY-05 was determined. The cooling time is a measure of how long it takes to reach 0° C. from 30° C. The particle size distribution (PSD) data shown in Table 3 were acquired using static automated imaging (Morphology 4).
Morphologi 4: The Particle size distribution of Arimoclomol citrate (ORZY-05) was also measured using a Malvern Morphologi 4 equipment.
Wet measurement was used for the needle shaped particles. […] Measurements were made using a thin path wet cell (75*75 mm). Samples were prepared by adding 20 mL of dispersant to 10 mg of API, followed by 30 s of stirring and 2 min of sonication in order to break the agglomerates. A microscope magnifier of X10 or X20 was used, and segmentation sharp edge and/or thresholding was used to improve the focus microscope focus.

absolute bioavailability [1]: 75%
drug-related material recovered in faeces ([2]; in vivo): 12%
drug-related material recovered in the urine ([2]; in vivo): 77.5%
permeability ([2]; not told): high
PK parameters (Cmax and AUC0-8) versus dose [3]: increase in proportion to the dose
absorption ([3]; po): rapid and extensive
SMILES: [O-][n+]1cccc(C(Cl)=NOC[C@H](O)CN2CCCCC2)c1 [arimoclomol, N-{[(2R)-2-hydroxy-3-piperidin-1-ylpropyl]oxy}pyridine-3-carboximidoyl chloride 1-oxide]

SMILES: [O-][n+]1cccc(/C(Cl)=N/OC[C@H](O)CN2CCCCC2)c1 [ORZY-04]
stability on drying [4]: stable

SMILES: O=C(O)CC(O)(CC(=O)O)C(=O)O.[O-][n+]1cccc(/C(Cl)=N/OC[C@H](O)CN2CCCCC2)c1 [compound 1003, arimoclomol citrate]
D10 [5]: 6.00 μm
D50 [5]: 17.00 μm
D90 [5]: 47.00 μm
Number CE Diameter D10 [6]: 0.89 μm
Number CE Diameter D50 [6]: 3.34 μm
Number CE Diameter D90 [6]: 14.14 μm
Number CE Diameter Mean [6]: 5.79 μm
Number Length D10 [6]: 4.20 μm
Number Length D50 [6]: 9.50 μm
Number Length D90 [6]: 25.49 μm
Volume CE Diameter D10 [6]: 10.66 μm
Volume CE Diameter D50 [6]: 20.58 μm
Volume CE Diameter D90 [6]: 34.54 μm
Volume CE diameter D[3,2] [6]: 17.52 μm
Volume CE diameter D[4,3] [6]: 22.10 μm

SMILES: O=C(O)CC(O)(CC(=O)O)C(=O)O.[O-][n+]1cccc(/C(Cl)=N/OC[C@H](O)CN2CCCCC2)c1 [compound 1004, arimoclomol citrate]
D10 [5]: 8.00 μm
D50 [5]: 22.00 μm
D90 [5]: 68.00 μm
Number CE Diameter D10 [6]: 1.05 μm
Number CE Diameter D50 [6]: 2.86 μm
Number CE Diameter D90 [6]: 13.33 μm
Number CE Diameter Mean [6]: 5.31 μm
Number Length D10 [6]: 2.82 μm
Number Length D50 [6]: 6.18 μm
Number Length D90 [6]: 24.80 μm
Volume CE Diameter D10 [6]: 12.62 μm
Volume CE Diameter D50 [6]: 25.00 μm
Volume CE Diameter D90 [6]: 43.46 μm
Volume CE diameter D[3,2] [6]: 20.53 μm
Volume CE diameter D[4,3] [6]: 27.06 μm

SMILES: O=C(O)CC(O)(CC(=O)O)C(=O)O.[O-][n+]1cccc(/C(Cl)=N/OC[C@H](O)CN2CCCCC2)c1 [compound 1002, arimoclomol citrate]
D10 [5]: 14.00 μm
D50 [5]: 53.00 μm
D90 [5]: 118.00 μm
Number CE Diameter D10 [6]: 2.45 μm
Number CE Diameter D50 [6]: 5.61 μm
Number CE Diameter D90 [6]: 15.01 μm
Number CE Diameter Mean [6]: 7.71 μm
Number Length D10 [6]: 3.46 μm
Number Length D50 [6]: 7.37 μm
Number Length D90 [6]: 22.17 μm
Volume CE Diameter D10 [6]: 12.39 μm
Volume CE Diameter D50 [6]: 32.12 μm
Volume CE Diameter D90 [6]: 73.60 μm
Volume CE diameter D[3,2] [6]: 24.24 μm
Volume CE diameter D[4,3] [6]: 39.38 μm

Reference: patent publication US20230416224A1, “PROCESSES FOR PREPARING ARIMOCLOMOL CITRATE AND INTERMEDIATES THEREOF” (ZEVRA DENMARK A/S, priority 2020, published 2023)
